Measurements published in BindingDB's records for doi:10.1111/j.1600-0773.1998.tb01469.x (Case Western Reserve University, 1998).
pKi: −log10 of the molar value. “And” between values parts separate entries of the source, which are not always exact repeats. Identical values can stand only once.

Target: T1, Muscarinic acetylcholine receptor M4 (Homo sapiens, UniProt P08173)
T1 sequence (P08173 whole entry): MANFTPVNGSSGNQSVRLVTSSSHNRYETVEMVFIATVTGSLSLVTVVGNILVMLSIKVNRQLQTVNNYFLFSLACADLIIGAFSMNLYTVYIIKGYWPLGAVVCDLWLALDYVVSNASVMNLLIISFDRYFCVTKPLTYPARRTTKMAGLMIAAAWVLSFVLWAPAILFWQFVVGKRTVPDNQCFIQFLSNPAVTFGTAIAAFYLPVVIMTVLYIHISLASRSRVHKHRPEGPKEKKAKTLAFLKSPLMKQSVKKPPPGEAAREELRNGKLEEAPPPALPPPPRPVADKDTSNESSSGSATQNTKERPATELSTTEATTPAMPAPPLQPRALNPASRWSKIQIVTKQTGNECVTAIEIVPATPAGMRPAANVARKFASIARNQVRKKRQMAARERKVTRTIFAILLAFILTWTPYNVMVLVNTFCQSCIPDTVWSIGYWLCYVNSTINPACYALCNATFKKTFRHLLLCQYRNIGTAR

SMILES | pKi
O[Si](CCCN1CCCCC1)(c1ccccc1)C1CCCCC1 (configuration not stated) [HHSiD] | 8.38 and 7.78
COc1ccccc1CNCCCCCCNCCCCCCCCNCCCCCCNCc1ccccc1OC [METHOCTRAMINE] | 7.18 and 7.14
